The values that follow come from article PMC6429159, “Evolution and Biological Evaluation of Matrinic Derivatives with Amantadine Fragments As New Anti-Influenza Virus Agents” (Molecules, 2019).

Data set [1] concerns MDCK cells. Put plainly: Cytotoxicity assay. The data set is classed as cell-based. As to conditions: 50% cytotoxic concentration, 48 hr. Here is the method: A three-fold dilution compound was added to cell monolayer, and the cells continued to be cultivated for 48 hr, and then the CPE was recorded. The TC50 value of each compound was calculated by the methods of Reed & Muench.

For data set [2], the system named is H3N2 virus non-structural protein 1 (NS1). Description: Anti-H3N2 activity at the protein level, NS1 Western blot. In kind it is cell-based, Influenza A virus. As to conditions: 40 μM, MDCK cells, MOI 0.003, 24 hr.
Another data set concerns IAV M2. The data set is classed as cell-based, Influenza A virus.
Data set [3] deals with influenza virus A/hanfang/359/95 (H3N2). Description: organism not typed. In kind it is cell-based. As to conditions: 50% virus-inhibitory concentration after 40 hr at 37 °C, MDCK cells; – = no anti-H3N2 activity at the maximum non-toxic concentration.
For another data set, the system named is Kunming mice. As to conditions: for weight loss and behaviour: oral single dose 125, 250, 500 mg·kg^–1, seven days, compared to control; for median lethal dose (LD50): oral single dose, Kunming mice, monitored seven days. As to the method: The acute toxicity tests of the two key compounds 9f and 9j were performed in Kunming mice. Each compound was given orally in a single-dosing experiment at 125, 250, and 500 mg·kg^–1, respectively. Then, the mice were closely monitored for seven days.
Female Kunming mice with weights of 20.0 (±1.0 g) were fed with regular rodent chow, and housed in an air-conditioned room. The mice were randomly divided into different groups with 10 mice each. Each compound was given orally in a single-dosing experiment at 125, 250, or 500 mg·kg^−1, respectively. The mice were closely monitored for seven days. Body weight, as well as survival, was monitored.

The subject of data set [4] is influenza virus A/Fort Monmouth/1/1947 (H1N1). Description: organism not typed. In kind it is cell-based. As to conditions: MDCK cells, CPE.
Data set [5] in a line: Stability assay in whole blood. As to conditions: 37 °C; for stability in whole blood (in words): in vitro. The data set is classed as in vitro ADME, SD rats. Here is the method: The results hinted that 9f owned a good PK stability profile in blood, and it was chosen for the next investigation.
The fresh bloods were collected on the day of experiment from SD rats, and pre-warmed in a water bath at 37 °C. A concentration of 10 mM tested compound or enalapril stock solutions were prepared in DMSO, and then diluted with 45% MeOH/H2O to achieve […] dosing solutions. […] At the end of incubation, for each sample, […] water and […] of stop solution (200 ng·mL^−1 tolbutamide plus 20 ng·mL^−1 buspirone in acetonitrile) were immediately added to precipitate the protein, and centrifuged at 4000 rpm for 20 min. An aliquot of supernatant ([…]) was then extracted, mixed with […] H2O, and then shaken at 800 rpm for about 10 min before being submitted for a liquid chromatography-tandem mass […] (LC-MS/MS) analysis. The experiment was repeated twice.
Figure 3 The stability assessments of key compounds 9f and 9j in whole blood. […]

Data set [6] deals with MDCK cells. As to conditions: lead 1, value of previous study; cited from earlier work.

Where a name gives a salt, the structure may show the parent alone. Read-outs that look alike come from different tables or passages of the source.

As a reminder, the IC50 is the concentration that inhibits the measured activity by half. Take `O=C(OCCCC[C@@H]1[C@H]2CCCN3CCC[C@@H](CN1S(=O)(=O)c1cccc(C(F)(F)F)c1)[C@@H]23)C12CC3CC(CC(Br)(C3)C1)C2` [Compound 9f, 12N-m-Trifluoromethlybenzenesulfonylmatrinicbutyl-3’-bromoadamantane-1’-carboxylate hydrochloride]: in the data set with MDCK cells [1], the TC50 was 75.7 ± 14.2 µM. Further, in data set [2], the “H3N2 virus NS1 level” value was “significantly reduce”. In addition, the M2 level entry in the data set on IAV M2 is “significantly reduce”. For the same compound, the IC50 is 7.2 ± 1.1 µM in data set [3] and 23.4 ± 1.5 µM in data set [4]. Moreover, the “weight loss and behaviour” value in the data set with Kunming mice is “neither significant weight loss nor behavioral abnormality”. Besides, the “median lethal dose (LD50)” value with Kunming mice is “higher than 500 mg·kg^–1”. The results for the “remaining rate of protype in whole blood” value in data set [5] (60 min) and in data set [5] (120 min) were 100% and 97.9%, respectively. Besides, in data set [5], the “stability in whole blood (in words)” value is “high stability profile”.

Compound `O=C(CC1CC2CCC1C2)OCCCC[C@@H]1[C@H]2CCCN3CCC[C@@H](CN1S(=O)(=O)c1cccc(C(F)(F)F)c1)[C@@H]23` (some centres unmarked) [Compound 9j, 12N-m-Trifluoromethlybenzenesulfonyl matrinic butyl-2’-norbornane acetate hydrochloride] came in with a TC50 in the data set with MDCK cells [1] of 110.3 ± 18.5 µM. In data set [2], the “H3N2 virus NS1 level” value is recorded as “significantly reduce”. For the same compound, the figures for the IC50 in data set [3] and in data set [4] were 10.2 ± 1.8 µM and 22.6 ± 1.3 µM, respectively. Moreover, the “weight loss and behaviour” value in the data set on Kunming mice was “neither significant weight loss nor behavioral abnormality”. Moreover, in the data set with Kunming mice, the “median lethal dose (LD50)” value is “higher than 500 mg·kg^–1”. Besides, the “remaining rate of protype in whole blood” value in data set [5] (30 min) amounted to 47.7%; in data set [5] (120 min), 1.3%. The “stability in whole blood (in words)” value in data set [5] is given as “poor stability”.

With `CCCCC1C2CCCN3CCCC(CN1Cc1ccc(C(=O)O)cc1)C23` (centres unmarked) [Compound 1, 12N-p-carboxybenzyl matrinic butane], the TC50 in the data set on MDCK cells [6] is over 540.5 µM.
